From US20260373132A1, “PERK INHIBITORHC-5404 IN COMBINATION WITH ANTI-PD-1 ANTIBODY AND/OR AN ANTIANGIOGENETIC AGENT FOR USE IN THE TREATMENT OF CANCER” (HIBERCELL, INC., priority 2022, published 2026) come the findings set out here.

The subject of assay [1] is RXF-2667. The assay is described as follows: RCC PDX single animal trial, RXF-2667. The class given is in vivo, mouse. The settings on record: HC-5404 30 mg/kg PO BID, n=1. An excerpt:
(§1) This example investigated the effect of HC-5404 in combination with VEGFR-TKIs in inhibiting tumor growth using 12 RCC PDX tumor models, following procedures analogous to those described above.
(§2) Single animal per group (n=1) trial of animals harboring diverse RCC PDX models were used in this study.

In assay [2] the test system is ASNS, CBS and CTH in 786-O tumors. The assay is described as follows: ASNS, CBS and CTH in 786-O tumors. It is filed as in vivo, mouse. The settings on record: HC-5404 treatment (FIG. 29). As for the experimental part:
Samples were put in 500 μL of Novex lysis buffer consisting of 2× Novex Tris-Glycine SDS sample buffer (ThermoFisher LC2676), 1× Phosphatase Inhibitor Cocktail III (Sigma P0044), 1× PhosphataseArrest I (Gbioscience 113P-D), 1×2-mercaptoethanol (Gibco 21985023), 1× Benzonase (EMD Millipore Corp 70746-3), and 1× Protease inhibitor cocktail tablet (Roche/Sigma 11836170001). Samples were homogenized with the Polytron and heated for 10 min at 95 °C. They were then centrifuged at max speed for 10 min and the supernatant was transferred. Protein concentrations of samples were measured using the Pierce 660 nm Protein assay kit (Thermo Scientific 22660) according to the manufacturer's instructions.
Western Blot analysis was performed on the SimpleWestern high-throughput protein analysis platform (ProteinSimple 004-650) according to manufacturer's protocol using a 12-230 kDA Separation Module (ProteinSimple SM-W004) and Total Protein Detection Module (ProteinSimple DM-TP01). Antibodies used were: (Add info for other antibodies used) pPERK (Lilly; 1:50) and PERK (Cell Signaling Technology 5683; 1:200). All protein analytes were normalized to total protein loaded on capillary.
The effect of HC-5404 was further validated in tumors by assessing the response of markers of in vivo PERK inhibition. […]

Assay [3] deals with RXF-2304. The assay is described as follows: RCC PDX single animal trial, RXF-2304. It is filed as in vivo, mouse. The settings on record: HC-5404 30 mg/kg PO BID, n=1.
Text: as §1, §2

Assay [4] relates to RXF-2540. As to the kind of experiment: RCC PDX single animal trial, RXF-2540. The class given is in vivo, mouse. The settings on record: HC-5404 30 mg/kg PO BID, n=1.
Text: as §1, §2

In assay [5] the test system is A498 RCC xenograft. The assay is described as follows: A498 RCC xenograft tumor growth. It is filed as in vivo, mouse. The protocol: Xenograft RCC models were generated as follows: Female NOD.SCID mice (6-8 weeks of age) were injected with A498 RCC cells (5×10^6 cells/mouse), female Balb/c Nude mice (6-8 weeks old) were implanted with 786-O RCC cells (5×10^6 cells/mouse) or Caki-1 RCC cells (6×10^6 cells/mouse), female Athymic Nude-Foxn1nu mice (7-8 weeks of age) were implanted with MFE280 endometrial cells (10×10^6 cells/mouse). Cells were implanted into the flank of animals.
Once tumor tumors reached volume of typically 150-250 mm^3, animals were randomized by tumor volume into the treatment groups of 8 or 10 animals per group. In the single animal trial with RCC PDX models, only one animal per group was enrolled.
Body weight and tumor volume were measured twice weekly. Tumor volume was calculated using the formula [tumor volume (mm^3)=π/6×length×width^2] and plotted as means+SEM. The percentage of tumor growth inhibition was calculated at the end of the study using the formula: […], if ΔT>0, ΔT, mean tumor volume of the drug-treated group on the observation day of the study—mean tumor volume of the drug-treated group on initial day of dosing; ΔC, mean tumor volume of the control group on the observation day of the study—mean tumor volume of the control group on initial day of dosing. Regression was calculated using the formula=100×ΔT/Tinitial, if ΔT<0. Animals with >50% regressions were partial responders. Animals with tumor volume of 0 (no measurable tumor) were considered as complete responders, and animals with <50% tumor regression and 30% growth over the baseline were considered as stable disease. Animals with tumors>30% increase over the baseline were considered progressive disease. The % change in body weight was calculated by the formula (body weight on observation day−body weight on initial day)/body weight on initial day×100%.

The test system of assay [6] is ATF4 levels in HEK293. As to the kind of experiment: HEK293 cell-based ATF4 western blot. The settings on record: Homo sapiens; HEK293, tunicamycin 1 μM. As for the experimental part:
Cell based assays HEK293 cells were plated at 1×10^6 cells per well and treated with HC-5404 30 minutes prior to addition of tunicamycin (1 μM) to induce ER stress. Cells were harvested 4 hours following tunicamycin addition and lysed for western blotting in RIPA buffer supplemented with protease and phosphatase inhibitors. Total protein concentrations were determined by BCA and […] of protein were loaded on to SDS-PAGE gels, transferred to nitrocellulose and probed with a primary antibody against phosphorylated T-982 of human PERK or total ATF4 followed by incubation with an infrared labelled secondary antibody. Blots were imaged on a LiCor imager and normalized to total protein in the wells using Revert™ stain. Band intensities were quantified and normalized to DMSO treated samples. Normalized band intensities were plotted as percent inhibition against 10-point; 3-fold dilution series of HC-5404. IC50 values were calculated using 4-parameter logistical fitting in XLFit.
The cell-based activity of HC-5404 was evaluated using HEK293 treated with tunicamycin (Tm; 1 μM) to induce ER stress.

In the case of `Cc1cc(NC(=O)[C@H](O)c2cc(F)cc(F)c2)ccc1-c1cnc(N)c(C(=O)NC(C)C)c1` [HC-5404, (R)-2-amino-5-(4-(2-(3,5-difluorophenyl)-2-hydroxyacetamido)-2-methylphenyl)-N-isopropylnicotinamide], the “antitumor efficacy as monotherapy” value in assay [1], in assay [3] and in assay [4] was “exhibited antitumor efficacy” each time. Besides, in assay [2], the “accumulation of ASNS, CBS and CTH” value was “dose-dependent accumulation of ASNS, CBS and CTH”. For the same compound, the TGI is reported as roughly 41% in assay [5] (10 and 30 mg/kg PO BID tested, 28 days (FIG. 36)); ~ 40% in assay [5] (single agent: HC-5404 30 mg/kg PO BID or sunitinib 20 mg/kg PO QD (FIG. 31)). The compound further displayed a 50% inhibitory concentration (IC50) in assay [6] of 115 nM.

For orientation: IC50 means the concentration that gives 50% inhibition. A low value points to higher potency.
